Assay results: patent EP0072137A1, “Antiviral deoxyuridine compounds” (BEECHAM GROUP PLC, priority 1981, dated 1983)
Values after ≈ are worked out from the molar mass of the structure shown. Like-named read-outs stand apart in the source and are kept apart here.

Experiments:
[1] = In vivo blood level study: antiviral activity of mouse serum titrated in plaque inhibition assays; design: species or system Balb/c mice
Protocol: Single 100 mg/kg doses of the compound were administered orally as suspensions in carboxymethyl cellulose to groups of 3 starved female Balb/c mice. Blood was collected 120 minutes after dosing and the serum separated and stored at -20°C. Heat inactivated sera from single mice were titrated in plaque inhibition assays using the KOS strain of Herpes simplex type 1 virus in Vero cell monolayers. Antiviral activity is calculated by extrapolation from a standard inhibition dose response curve for E-5-(2-bromovinyl)-2'-deoxyuridine and is quoted as the equivalent concentration of E-5-(2-bromovinyl)-2'-deoxyuridine (in ug/mL) giving the same antiviral activity in cell culture.

[2] = system: Herpes simplex type 1 virus (HFEM strain); assay: Plaque reduction assay in cell culture; format: cell-based; conditions: Human alphaherpesvirus 1, 144 h; concentration causing a 50% reduction in the number of virus plaques; HSV-1 HFEM strain in Vero cells, 37°C, 6 days; read-out: PDD50 (the source's name)
Protocol: (§1) Vero (African Green Monkey Kidney) cells were grown to confluence in 6 well multidishes, each well being 3.5 cm in diameter. The cells were incubated with Herpes simplex type 1 virus (HFEM strain) and overlaid with 0.5 ml of 0.9% agarose (w/v) in maintenance medium containing the test compound at a range of concentrations from 100 pg/mL in half-log dilution steps. The virus infected cultures were then incubated at 37°C for 6 days before fixing in 4% formaldehyde solution and staining with carbolfuchsin. The dishes were then examined to find what concentration of test compound causing a 50% reduction in the number of virus plaques formed (PDD50 value) and the minimum concentration of test compound which killed the cell monolayer, leaving a clear zone devoid of cells and virus plaques (MTD).

[3] = Toxicity to the cell monolayer (MTD) in the plaque reduction assay; format: cell-based; conditions: monkey; minimum concentration which killed the cell monolayer; Vero cells, 6 days
Protocol: as §1

Compound | concentration at 2 h ([1]; single 100 mg/kg oral dose, suspension in carboxymethyl cellulose, starved female Balb/c mice, 120 minutes after dosing, HSV-1 KOS in Vero cell monolayers, read-out: Antiviral activity in serum, as equivalent concentration of E-5-(2-bromovinyl)-2'-deoxyuridine) [µg/mL] | concentration at 2 h ([1]; po, 100 mg/kg) [µg/mL] | EC50 [2] [mg/L] | MCC at 144 h [3] [µg/mL]
O=c1[nH]c(=O)n([C@H]2C[C@H](O)[C@@H](CO)O2)cc1/C=C/Br [E-5-(2-bromo-vinyl)-2'-deoxyuridine, E-5-(2-bromovinyl)-2'-deoxyuridine, reference compound] | 1.7 ± 0.5 | – | – | –
Cn1c(=O)c(/C=C/Br)cn([C@H]2C[C@H](O)[C@@H](CO)O2)c1=O [Example 1, E-3-methyl-5-(2-bromovinyl)-2'-deoxyuridine] | – | 3.1 ± 0.8 | 5.4 (≈ 15.6 µM) | > 100
